# Counter-ions that a name gives are not always drawn.
# Key:
# Type in all cases: cell-based
# S. aureus = assay: Combination therapy: Gentamycin with PDEA, visible growth; details: Gentamycin 0 μg/ml
# Method: (§1) Different concentrations of Gentamycin in Mueller Hinton were prepared in 3 different concentrations of PDEA. E. coli and S. aureus were inoculated (10^5) and were incubated O/N.
# (§2) Readouts were “Clear” and “Foggy”.
# E. coli = assay: as above; details: Gentamycin 0 μg/ml
# Method: as §1, §2
# [1] = test system: Klebsiella pneumoniae AO15200; assay: Minimum inhibitory concentration (MIC), visible growth
# Method: (§3) • 1. Using a sterile inoculating loop, transfer bacteria/Candida albicans from frozen stock culture and streak them on a fresh LA plate. • 2. Incubate the plate at 37° C. overnight (o/n) (18-24 h).
# (§4) • 1. Prepare bacterial culture by adding 20 ml Mueller Hinton broth (*) to a 250-ml Erlenmeyer flask with sidearm. • 2. Using a sterile inoculating loop, pick approximately 10 colonies from the o/n bacterial culture and transfer bacteria to the flask. • 3. Incubate the E-flask with bacteria on a rotating shaker at 37° C. until OD590=0.40. This OD should equal an approximate bacterial count of 1×10^8 cfu/ml (**) • This is measured using a colorimeter (or spectrophotometer). Set reference and press R (=reference) first, then measure the bacterial culture by pressing T (=test). • 4. At OD590 0.40, serially dilute the bacterial suspension 1:10 000 in Mueller Hinton broth to obtain a bacterial target concentration of 1×10^4 cfu/ml. Determine the initial inoculation by serially diluting 0.1 ml in 0.9 ml blanks of sterile PBS and plating 0.1 ml aliquots to LA plates, preferably. • 5. Different concentrations of the tested compound are prepared in 0.6-0.8 ml of the final dilution of bacterial suspension and placed in 2-ml test tubes. • 6. Incubate test tubes in an orbital shaker incubator at 37° C. for 24 h.
# (§5) • 7. Analyze visible growth, i.e. “Foggy” or “Clear”. MIC is being defined as the interval between the highest “Foggy” and the lowest “Clear” concentration of the compound.
# (§6) Different concentrations of PDEA (Example 1) in Mueller Hinton medium were prepared. Bacteria were inoculated to a concentration of 20 000 CFU/ml and incubated at 37° C. for 24 hours. Minimum inhibitory concentrations (MICs) were determined by analyzing visible growth, i.e., readouts were “Clear” and “Foggy”.
# (§7) Different concentrations of the quaternary ammonium PDEA (Example 2) in Mueller Hinton medium were prepared. Bacteria were inoculated to a concentration of 20 000 CFU/ml and incubated at 37° C. for 24 hours. Minimum inhibitory concentrations (MICs) were determined by analyzing visible growth, i.e., readouts were “Clear” and “Foggy”.
# (§8) Different concentrations of this compound in Mueller Hinton medium were prepared. Bacteria were inoculated to a concentration of 20 000 CFU/ml and incubated at 37° C. for 24 hours. Minimum inhibitory concentrations (MICs) were determined by analyzing visible growth, i.e., readouts were “Clear” and “Foggy”.
# (§9) Different concentrations of this compound were prepared in Mueller Hinton broth. Bacteria were inoculated to a concentration of 20 000 CFU/ml and incubated at 37° C. for 24 hours. Minimum inhibitory concentrations (MICs) were determined by analyzing visible growth, i.e., readouts were “Clear” and “Foggy”.
# [2] = test system: Pseudomonas aeruginosa PA02; assay: as above
# Method: as §3, §4, §5, §6, §7, §8, §9
# [3] = test system: Enterococcus faecalis #28 (KI, Clinical Isolate); assay: as above
# Method: as §3, §4, §5, §6, §7, §8, §9
# Escherichia coli CFT073 = assay: as above
# Method: as §3, §4, §5, §6, §7, §8, §9
# [4] = test system: Enterococcus faecium #11 (KI, Clinical Isolate); assay: as above
# Method: as §3, §4, §5, §6, §7, §8, §9
# [5] = test system: Staphylococcus aureus B5381; assay: as above
# Method: as §3, §4, §5, §6, §7, §8, §9
# [6] = test system: Staphylococcus epidermidis Se19 (Clinical Isolate, Jan Ingemar Falk); assay: as above
# Method: as §3, §4, §5, §6, §7, §8, §9
smiles,measurement,setting,value
"NCCSSc1ccccn1 [PDEA, 2-(Pyridyldithio)ethylamine (hydrochloride)]",Visible growth readout (Clear/Foggy),S. aureus; PDEA 0.0125 mM,Foggy
same,Visible growth readout (Clear/Foggy),S. aureus; PDEA 0.025 mM,Foggy
same,Visible growth readout (Clear/Foggy),S. aureus; PDEA 0.05 mM,Foggy
same,Visible growth readout (Clear/Foggy),E. coli; PDEA 0.0125 mM,Foggy
same,Visible growth readout (Clear/Foggy),E. coli; PDEA 0.025 mM,Foggy
same,Visible growth readout (Clear/Foggy),E. coli; PDEA 0.04 mM,Clear
same,visible growth readout,[1]; 0.01 mM,Foggy
same,visible growth readout,[1]; 0.025 mM,Foggy
same,visible growth readout,[1]; 0.05 mM,Foggy
same,visible growth readout,[1]; 0.1 mM,Clear
same,MIC,"[1]; Klebsiella pneumoniae, AO15200, 24 h",50 to 100 µM
same,visible growth readout,[2]; 0.05 mM,Foggy
same,visible growth readout,[2]; 0.1 mM,Foggy
same,visible growth readout,[2]; 0.2 mM,Clear
same,visible growth readout,[2]; 0.4 mM,Clear
same,MIC,"[2]; Pseudomonas aeruginosa, PA02, 24 h",100 to 200 µM
same,visible growth readout,[3]; 0.05 mM,Foggy
same,visible growth readout,[3]; 0.1 mM,Foggy
same,visible growth readout,[3]; 0.2 mM,Clear
same,visible growth readout,[3]; 0.4 mM,Clear
same,MIC,"[3]; Enterococcus faecalis, 24 h",100 to 200 µM
same,visible growth readout,Escherichia coli CFT073; 0.01 mM,Foggy
same,visible growth readout,Escherichia coli CFT073; 0.025 mM,Foggy
same,visible growth readout,Escherichia coli CFT073; 0.05 mM,Foggy
same,visible growth readout,Escherichia coli CFT073; 0.1 mM,Clear
same,MIC,"Escherichia coli CFT073; Escherichia coli, CFT073, 24 h",50 to 100 µM
same,visible growth readout,[4]; 0.01 mM,Foggy
same,visible growth readout,[4]; 0.025 mM,Foggy
same,visible growth readout,[4]; 0.05 mM,Clear
same,visible growth readout,[4]; 0.1 mM,Clear
same,MIC,"[4]; Enterococcus faecium, 24 h",25 to 50 µM
same,visible growth readout,[5]; 0.05 mM,Foggy
same,visible growth readout,[5]; 0.1 mM,Foggy
same,visible growth readout,[5]; 0.2 mM,Clear
same,visible growth readout,[5]; 0.4 mM,Clear
same,MIC,"[5]; Staphylococcus aureus, B5381, 24 h",100 to 200 µM
same,visible growth readout,[6]; 0.01 mM,Foggy
same,visible growth readout,[6]; 0.025 mM,Foggy
same,visible growth readout,[6]; 0.05 mM,Clear
same,visible growth readout,[6]; 0.1 mM,Clear
same,MIC,"[6]; Staphylococcus epidermidis, 24 h",25 to 50 µM

# — US20250339415A1, “DISULFIDE COMPOUNDS AS MEDICAMENTS” (CYTACOAT AB, priority 2021, published 2025)
